{
  "source": "paper PMC6572996",
  "about": "“Silver(I) Complexes of the Pharmaceutical Agents Metronidazole and 4-Hydroxymethylpyridine: Comparison of Cytotoxic Profile for Potential Clinical Application” (Molecules, 2019)",
  "key": {"HepG2 cells [1]": {"test_system": "HepG2 cells", "assay": "TPC assay (total protein content), HepG2", "assay_type": "cell-based, human", "conditions": "for Lowest concentration with significant (p ≤ 0.05) decrease of total protein content (TPC): HepG2, 72 h, vs negative control 0.1% DMSO; for IC50: HepG2, 72 h exposure, mean (n = 3) ± SEM, read-out: Inhibitory concentration IC50, TPC", "protocol": "(§1) Data obtained from the measurement of the optical density in these assays were transformed to percentages in relation to the control group, considered to be 100% for the MTT, NRU, and TPC assays and 0% for the LDH assay (Figure 1).\n(§2) The human hepatoma cell line (HepG2) was purchased from the American Type Culture Collection (ATCC HB-8065). These cells were cultured in Minimum Essential Medium Eagle (MEME) (ATCC). The murine fibroblast cell line (Balb/c 3T3 clone A31) (gift from Department of Swine Diseases of the National Veterinary Research Institute in Pulawy) was cultured in Dulbecco’s Modified Eagle’s Medium (DMEM) (ATCC). The media were supplemented with 10% BCS (Balb/c 3T3), 10% FBS (HepG2), 1% L-glutamine, and 1% antibiotic solution. The cells were maintained in 75 cm^2 cell culture flasks (Nunc, Roskilde, Denmark) in a humidified incubator, NuAire (Plymouth, MN, USA) at 37 °C, in an atmosphere of 5% CO2. The medium was refreshed every two or three days and the cells were trypsinized by 0.25% trypsin–0.02% EDTA after reaching 70–80% confluence. Single cell suspensions were prepared and adjusted to a density of 2 × 10^5 cells/mL (HepG2) and 5 × 10^4 cells/mL (Balb/c 3T3). The cell suspension was transferred to 96-well plates (100 µL/well) and incubated for 24 h before the exposure to the study compounds.\n(§3) The concentration ranges of compounds were chosen according to their solubility and their plasma level. Each compound was dissolved in DMSO. The final concentration of DMSO was 0.1% in the medium. The same final concentrations of the solvent and the 1% Trition-X 100 solution were used as the negative and positive controls, respectively. […] All compound solutions in the medium were freshly prepared and protected from light. […] The concentration range was selected on the basis of results from previous studies. Each concentration was tested in six replicates with three independent experiments. Cytotoxicity was assessed after 72 h of exposure of the cells to the compounds. The medium was not changed during the incubation time.\n(§4) The assay was based upon staining total cellular protein (proliferation). After incubation, the medium containing the compound was removed and 100 µL of Coomassie Brilliant Blue R-250 dye were added to each well. The plate was shaken for 10 min. Then, the stain was removed and the cells were rinsed twice with 100 µL of washing solution (glacial acetic acid/ethanol/water). After that, a 100 µL portion of the desorbing solution (1 M potassium acetate) was added and plates were shaken again for 10 min. The absorbance was measured at 595 nm in a microplate reader (LabSystems Multiskan RC, Thermo Fisher Scientific, Waltham, MA, USA) using a blank as a reference. Cytotoxicity was expressed as a percentage of the negative control (0.1% DMSO).\n(§5) The results of the tests were expressed as a mean ± SD. The experiments were performed in three independent repetitions. Statistical analysis was performed using GraphPad Prism 5 (San Diego, CA, USA). One-way analysis of variance (ANOVA) followed by Dunnett’s post-hoc test was applied. The 50% inhibition (cytotoxicity) concentrations (IC50) were derived from the dose–response curve plotted with the concentration of the compound (X-axis) vs. cell viability percent (Y-axis). The IC50 values were calculated by GraphPad Prism 5 software (San Diego, CA, USA). Statistical comparisons among IC50 values were performed by the analysis of variance (ANOVA) followed by the Tukey test. Values of p ≤ 0.05 were considered statistically significant."}, "[2]": {"test_system": "murine melanoma (B16) cell line", "design": "method as in PMID 26828469", "conditions": "cited from earlier work"}, "Balb/c 3T3 cells [3]": {"test_system": "Balb/c 3T3 cells", "assay": "TPC assay (total protein content), Balb/c 3T3", "assay_type": "cell-based, mouse", "conditions": "for IC50: Balb/c 3T3, 72 h exposure, mean (n = 3) ± SEM, read-out: Inhibitory concentration IC50, TPC", "protocol": "as §1, §2, §3, §4, §5"}, "Balb/c 3T3 cells [4]": {"test_system": "Balb/c 3T3 cells", "assay": "MTT assay (mitochondrial activity), Balb/c 3T3", "assay_type": "cell-based, mouse", "conditions": "for Lowest concentration with significant (p ≤ 0.05) inhibition of mitochondrial activity (MTT): Balb/c 3T3, 72 h, vs negative control 0.1% DMSO; for IC50: Balb/c 3T3, 72 h exposure, mean (n = 3) ± SEM, read-out: Inhibitory concentration IC50, MTT", "protocol": "as §1, §2, §3\n(§6) The metabolic activity of living cells was assessed by measuring the activity of dehydrogenases. After incubation of the cells with the compounds, a 10 μL portion of the MTT solution (5 mg/ml in PBS) was added to each well of the 96-well plates and incubated. After 3 h, the MTT solution was removed and the intracellular formazan crystals were dissolved in 100 µl DMSO. The plate was shaken for 15 min at room temperature and transferred to a microplate reader (LabSystems Multiskan RC, Thermo Fisher Scientific, Waltham, MA, USA) to measure the absorbance at 570 nm, using blanks as a reference. Cytotoxicity was expressed as a percentage of the negative control (0.1% DMSO).\nas §5"}, "HepG2 cells [5]": {"test_system": "HepG2 cells", "assay": "NRU assay (lysosomal activity), HepG2", "assay_type": "cell-based, human", "conditions": "for Lowest concentration with significant (p ≤ 0.05) inhibition of lysosomal activity (NRU): HepG2, 72 h, vs negative control 0.1% DMSO; for IC50: HepG2, 72 h exposure, mean (n = 3) ± SEM, read-out: Inhibitory concentration IC50, NRU", "protocol": "as §1, §2, §3\n(§7) The assay, based on the staining of living cells by neutral red, was performed according to the protocol described by Borenfreund and Puerner. After incubation, the medium containing the compound was removed and the cells were washed with PBS. Then, a 100 µL/well of NR solution (50 µg/mL) was added for 3 h. After that time, the cells were washed with PBS. The dye from viable cells was released by extraction with a mixture of acetic acid, ethanol, and water. After 10 min of shaking, the absorbance of the dissolved NR was measured at 540 nm in a microplate reader (LabSystems Multiskan RC, Thermo Fisher Scientific, Waltham, MA, USA) using a blank as a reference. Cytotoxicity was expressed as a percentage of the negative control (0.1% DMSO).\nas §5"}, "HepG2 cells [6]": {"test_system": "HepG2 cells", "assay": "MTT assay (mitochondrial activity), HepG2", "assay_type": "cell-based, human", "conditions": "for IC50: HepG2, 72 h exposure, mean (n = 3) ± SEM, read-out: Inhibitory concentration IC50, MTT", "protocol": "as §1, §2, §3, §6, §5"}, "Balb/c 3T3 cells [7]": {"test_system": "Balb/c 3T3 cells", "assay": "NRU assay (lysosomal activity), Balb/c 3T3", "assay_type": "cell-based, mouse", "conditions": "for IC50: Balb/c 3T3, 72 h exposure, mean (n = 3) ± SEM, read-out: Inhibitory concentration IC50, NRU", "protocol": "as §1, §2, §3, §7, §5"}, "HepG2 cells [8]": {"test_system": "HepG2 cells", "assay": "Leakage LDH assay (cellular membrane integrity), HepG2", "assay_type": "cell-based, human", "conditions": "for IC50: HepG2, 72 h exposure, mean (n = 3) ± SEM, read-out: Inhibitory concentration IC50, LDH", "protocol": "as §1, §2, §3\n(§8) The integrity of the plasma membrane was assessed using the test of lactate dehydrogenase (LDH) release, which was monitored using the commercially available Cytotoxicity Detection Kit (LDH) (Roche Diagnostics, Warsaw, Poland). The medium (100 µL/well) without cells was transferred into the corresponding wells of an optically clear 96-well flat bottom microplate and a 100 µl reaction mixture was added to each well. Then, the plates were incubated for 30 min at room temperature in darkness. After that time, a 50 µL/well 1 M HCl was added to stop the reaction. The absorbance was measured at 492 nm in a microplate reader (LabSystems Multiskan RC, Thermo Fisher Scientific, Waltham, MA, USA) using a blank as a reference.\nas §5"}, "Balb/c 3T3 cells [9]": {"test_system": "Balb/c 3T3 cells", "assay": "Leakage LDH assay (cellular membrane integrity), Balb/c 3T3", "assay_type": "cell-based, mouse", "conditions": "for IC50: Balb/c 3T3, 72 h exposure, mean (n = 3) ± SEM, read-out: Inhibitory concentration IC50, LDH", "protocol": "as §1, §2, §3, §8, §5"}, "human fibroblasts (FMM1)": {"test_system": "human fibroblasts (FMM1)", "design": "method as in PMID 20857004", "conditions": "50 µg/mL, 72 h treatment; cited from earlier work"}, "[10]": {"conditions": "Balb/c 3T3, 72 h, vs negative control 0.1% DMSO"}, "[11]": {"conditions": "HepG2, 72 h, vs negative control 0.1% DMSO"}},
  "data": [
    {"smiles": "O=[N+]([O-])[O-].[Ag+]", "note": "[Silver nitrate]", "values": [
      {"measurement": "Lowest concentration with significant (p ≤ 0.05) decrease of total protein content (TPC)", "setting": "HepG2 cells [1]", "result": 8.8, "unit": "µM"},
      {"measurement": "IC50", "setting": "HepG2 cells [1]", "result": "60.3 ± 8.1", "unit": "µM"},
      {"measurement": "IC50", "setting": "[2]; 72 h incubation", "result": 9.74, "unit": "µM"},
      {"measurement": "Lowest concentration with significant (p ≤ 0.05) decrease of total protein content (TPC)", "setting": "Balb/c 3T3 cells [3]; [10]", "result": 2.2, "unit": "µM"},
      {"measurement": "IC50", "setting": "Balb/c 3T3 cells [3]", "result": "2.59 ± 1.3", "unit": "µM"},
      {"measurement": "Lowest concentration with significant (p ≤ 0.05) inhibition of mitochondrial activity (MTT)", "setting": "Balb/c 3T3 cells [4]", "result": 2.2, "unit": "µM"},
      {"measurement": "IC50", "setting": "Balb/c 3T3 cells [4]", "result": "2.13 ± 0.88", "unit": "µM"},
      {"measurement": "Lowest concentration with significant (p ≤ 0.05) inhibition of lysosomal activity (NRU)", "setting": "HepG2 cells [5]", "result": 4.4, "unit": "µM"},
      {"measurement": "IC50", "setting": "HepG2 cells [5]", "result": "6.18 ± 1.41", "unit": "µM"},
      {"measurement": "Lowest concentration with significant (p ≤ 0.05) inhibition of mitochondrial activity (MTT)", "setting": "HepG2 cells [6]; [11]", "result": 4.4, "unit": "µM"},
      {"measurement": "IC50", "setting": "HepG2 cells [6]", "result": "6.48 ± 1.6", "unit": "µM"},
      {"measurement": "Lowest concentration with significant (p ≤ 0.05) inhibition of lysosomal activity (NRU)", "setting": "Balb/c 3T3 cells [7]; [10]", "result": 2.2, "unit": "µM"},
      {"measurement": "IC50", "setting": "Balb/c 3T3 cells [7]", "result": "2.94 ± 1.06", "unit": "µM"},
      {"measurement": "Lowest concentration with significant (p ≤ 0.05) disintegration of the cellular membrane (LDH)", "setting": "HepG2 cells [8]; [11]", "result": 4.4, "unit": "µM"},
      {"measurement": "IC50", "setting": "HepG2 cells [8]", "result": "3.47 ± 0.24", "unit": "µM"},
      {"measurement": "Lowest concentration with significant (p ≤ 0.05) disintegration of the cellular membrane (LDH)", "setting": "Balb/c 3T3 cells [9]; [10]", "result": 2.2, "unit": "µM"},
      {"measurement": "IC50", "setting": "Balb/c 3T3 cells [9]", "result": "3.12 ± 0.06", "unit": "µM"}
    ]},
    {"smiles": "Cc1ncc([N+](=O)[O-])n1CCO", "note": "[Metronidazole]", "values": [
      {"measurement": "Lowest concentration with significant (p ≤ 0.05) decrease of total protein content (TPC)", "setting": "HepG2 cells [1]", "result": 8.8, "unit": "µM"},
      {"measurement": "IC50", "setting": "HepG2 cells [1]; Homo sapiens", "result": "> 146", "unit": "µM"},
      {"measurement": "Cytotoxicity in B16 cell line", "setting": "[2]; same observation as in this study", "result": "poorly cytotoxic"},
      {"measurement": "IC50", "setting": "Balb/c 3T3 cells [3]; Mus musculus, BALB/c3T3", "result": "> 146", "unit": "µM"},
      {"measurement": "Decrease of viability of human fibroblasts (FMM1)", "setting": "human fibroblasts (FMM1)", "result": 40, "unit": "%"},
      {"measurement": "Lowest concentration with significant (p ≤ 0.05) inhibition of mitochondrial activity (MTT)", "setting": "Balb/c 3T3 cells [4]", "result": 36, "unit": "µM"},
      {"measurement": "IC50", "setting": "Balb/c 3T3 cells [4]; Mus musculus, BALB/c3T3", "result": "> 146", "unit": "µM"},
      {"measurement": "Lowest concentration with significant (p ≤ 0.05) inhibition of lysosomal activity (NRU)", "setting": "HepG2 cells [5]", "result": 146, "unit": "µM"},
      {"measurement": "IC50", "setting": "HepG2 cells [5]; Homo sapiens", "result": "> 146", "unit": "µM"},
      {"measurement": "IC50", "setting": "HepG2 cells [6]; Homo sapiens", "result": "> 146", "unit": "µM"},
      {"measurement": "IC50", "setting": "Balb/c 3T3 cells [7]; Mus musculus, BALB/c3T3", "result": "> 146", "unit": "µM"},
      {"measurement": "IC50", "setting": "HepG2 cells [8]; Homo sapiens", "result": "> 146", "unit": "µM"},
      {"measurement": "IC50", "setting": "Balb/c 3T3 cells [9]; Mus musculus, BALB/c3T3", "result": "> 146", "unit": "µM"}
    ]}
  ]
}
